According to US9932637B2, “Genetic polymorphisms associated with cardiovascular disorders and drug response, methods of detection and uses thereof” (CELERA CORPORATION, priority 2003, dated 2018):

Test system: patients with prior myocardial infarction (CARE study)
Assay: CARE: association of SNPs with pravastatin treatment in cardiovascular events prevention (logistic regression, odds ratio pravastatin vs placebo by genotype; Table 8)
Format: in vivo, human
From the text: In order to identify genetic markers associated with acute coronary events (e.g. MI, stroke, unstable angina, congestive heart failure, etc.) or response to statin treatment for the prevention of coronary events, samples from the Cholesterol and Recurrent Events (CARE) study (a randomized multicentral double-blinded trial on secondary prevention of acute coronary events with pravastatin) (Sacks et al., 1991, Am. J. Cardiol. 68: 1436-1446) were genotyped. A well-documented myocardial infarction (MI) was one of the enrollment criteria for entry into the CARE study. Patients were enrolled in the CARE trial from 80 participating study centers. […] Patients were randomized to receive either 40 mg of pravastatin once daily or a matching placebo. The primary endpoint of the trial was death from coronary heart disease and the median duration of follow-up was 5.0 years (range, 4.0 to 6.2 years). […] Secondary endpoints of other related cardiovascular or metabolic disease events, and changes in clinical variables were also recorded in pravastatin-treated and placebo groups. All individuals included in the study had signed a written informed consent form and the study protocol was approved by the respective Institutional Review Boards (IRBs).
For genotyping SNPs in CARE patient samples, DNA was extracted from blood samples using conventional DNA extraction methods such as the QIA-amp kit from Qiagen. Genotypes were obtained on an ABI PRISM® 7900HT Sequence Detection PCR system (Applied Biosystems, Foster City, Calif.) by kinetic allele-specific PCR, similar to the method described by Germer et al. (Germer S., Holland M. J., Higuchi R. 2000, Genome Res. 10: 258-266).
Statistical analysis for association of SNPs with pravastatin treatment in cardiovascular events prevention (Table 8) was carried out using an overall logistic regression model that included an intercept, a parameter for the effect of a genotype containing two rare alleles versus a genotype containing no rare alleles, a parameter for the effect of a genotype containing one rare allele versus a genotype containing no rare alleles, a parameter for the effect of use of pravastatin versus the use of placebo, and parameters for the interaction effects between SNP genotypes and pravastatin use. The test of the overall model is a chi-square test with two degrees of freedom for analyses containing all three genotypes, and one degree of freedom for analyses containing two genotypes.
Effect sizes were estimated through odds ratios (pravastatin group versus placebo) for carriers of each genotype (groups of 0, 1, and 2 minor allele carriers). The effect was considered to be significant if p-value for testing whether any of the interactions between SNP genotypes and pravastatin use were <0.05. […] Odds ratios less than one indicate that the specific SNP allele has a protective effect and odds ratios greater than one indicate that the specific SNP allele has an adverse effect.

[1] = CXCL16 hCV8718197, All Patients, Cardiovascular Mortality
[2] = CXCL16 hCV8718197, All Patients, Coronary Artery Bypass or Revascularization
[3] = CXCL16 hCV8718197, All Patients, Fatal Atherosclerotic Cardiovascular Disease
[4] = CXCL16 hCV8718197, All Patients, Fatal CHD/Definite Non-fatal MI
[5] = CXCL16 hCV8718197, All Patients, Fatal/Non-fatal MI (def & prob)
[6] = CXCL16 hCV8718197, All Patients, Hosp. for Cardiovascular Disease
[7] = CXCL16 hCV8718197, All Patients, Total Cardiovascular Disease Events
[8] = CXCL16 hCV8718197, All Patients, Total Coronary Heart Disease
[9] = CYP4F2 hCV16179493, All Patients, 0 Rare Alleles, Prava arm
[10] = CYP4F2 hCV16179493, All Patients, 1 Rare Allele, Prava arm
[11] = CYP4F2 hCV16179493, All Patients, 2 Rare Alleles, Prava arm
[12] = ELN hCV1253630, All Patients, 0 Rare Alleles, Prava, n/total 45/543

Which “Fatal Atherosclerotic Cardiovascular Disease, n/total (%)” value (CXCL16 hCV8718197, All Patients, 2 Rare Alleles, Prava, n/total 19/292) does the source give for `CC[C@H](C)C(=O)O[C@H]1C[C@H](O)C=C2C=C[C@H](C)[C@H](CC[C@@H](O)C[C@@H](O)CC(=O)O)[C@H]21` [pravastatin] here?
Its value is “(6.5%)”.

What about the “Fatal CHD/Definite Non-fatal MI, n/total (%)” value (CXCL16 hCV8718197, All Patients, 2 Rare Alleles, Prava, n/total 34/292) of the same molecule?
Its value is “(11.6%)”.

What about the “Fatal/Non-fatal MI (def & prob), n/total (%)” value (from here on “Fatal/Non-fatal MI … (%)”) (CXCL16 hCV8718197, All Patients, 2 Rare Alleles, Prava, n/total 36/292) of the same molecule?
Its value is “(12.3%)”.

And the “Coronary Artery Bypass or Revascularization, n/total (%)” value (CXCL16 hCV8718197, All Patients, 2 Rare Alleles, Prava, n/total 43/292)?
Its value is “(14.7%)”.

What about the “Total Coronary Heart Disease Events, n/total (%)” value (CXCL16 hCV8718197, All Patients, 2 Rare Alleles, Prava, n/total 94/292) of the same molecule?
The value was “(32.2%)”.

And the “Hosp. for Cardiovascular Disease, n/total (%)” value (CXCL16 hCV8718197, All Patients, 2 Rare Alleles, Prava, n/total 124/292)?
Its value is “(42.5%)”.

What about the “Total Cardiovascular Disease Events, n/total (%)” value (CXCL16 hCV8718197, All Patients, 2 Rare Alleles, Prava, n/total 130/292) of the same molecule?
Its value is “(44.5%)”.

What about the “Prava vs. Placebo Odds Ratio, 0 Rare Alleles” value [1] of the same molecule?
The value was 0.45.

What about the “Prava vs. Placebo Odds Ratio, 1 Rare Alleles” value [1] of the same molecule?
Its value is 0.80.

And the “Prava vs. Placebo Odds Ratio, 2 Rare Alleles” value [1]?
Its value is 2.08.

What about the “Prava vs. Placebo Odds Ratio, 0 Rare Alleles” value [2] of the same molecule?
The value was 0.45.

And the “Prava vs. Placebo Odds Ratio, 1 Rare Alleles” value [2]?
The value was 0.93.

What about the “Prava vs. Placebo Odds Ratio, 2 Rare Alleles” value [2] of the same molecule?
Its value is 0.70.

What about the “Prava vs. Placebo Odds Ratio, 0 Rare Alleles” value [3] of the same molecule?
Its value is 0.45.

And the “Prava vs. Placebo Odds Ratio, 1 Rare Alleles” value [3]?
The value was 0.76.

And the “Prava vs. Placebo Odds Ratio, 2 Rare Alleles” value [3]?
Its value is 2.08.

What about the “Prava vs. Placebo Odds Ratio, 0 Rare Alleles” value [4] of the same molecule?
Its value is 0.44.

And the “Prava vs. Placebo Odds Ratio, 1 Rare Alleles” value [4]?
Its value is 0.82.

What about the “Prava vs. Placebo Odds Ratio, 2 Rare Alleles” value [4] of the same molecule?
The value was 1.05.

What about the “Prava vs. Placebo Odds Ratio, 0 Rare Alleles” value [5] of the same molecule?
The value was 0.38.

And the “Prava vs. Placebo Odds Ratio, 1 Rare Alleles” value [5]?
Its value is 0.80.

What about the “Prava vs. Placebo Odds Ratio, 2 Rare Alleles” value [5] of the same molecule?
Its value is 0.92.

And the “Prava vs. Placebo Odds Ratio, 0 Rare Alleles” value [6]?
The value was 0.59.

What about the “Prava vs. Placebo Odds Ratio, 1 Rare Alleles” value [6] of the same molecule?
Its value is 0.89.

And the “Prava vs. Placebo Odds Ratio, 2 Rare Alleles” value [6]?
The value was 0.80.

What about the “Prava vs. Placebo Odds Ratio, 0 Rare Alleles” value [7] of the same molecule?
The value was 0.56.

And the “Prava vs. Placebo Odds Ratio, 1 Rare Alleles” value [7]?
Its value is 0.90.

And the “Prava vs. Placebo Odds Ratio, 2 Rare Alleles” value [7]?
The value was 0.81.

What about the “Prava vs. Placebo Odds Ratio, 0 Rare Alleles” value [8] of the same molecule?
The value was 0.57.

And the “Prava vs. Placebo Odds Ratio, 1 Rare Alleles” value [8]?
Its value is 0.92.

What about the “Prava vs. Placebo Odds Ratio, 2 Rare Alleles” value [8] of the same molecule?
The value was 0.82.

What about the “Cardiovascular Mortality, n/total (%)” value [9] of the same molecule?
The value was “(3.3%)”.

What about the “Catheterization, n/total (%)” value [9] of the same molecule?
The value was “(10.5%)”.

And the “Fatal Atherosclerotic Cardiovascular Disease, n/total (%)” value [9]?
The value was “(3.2%)”.

What about the “Fatal Coronary Heart Disease, n/total (%)” value [9] of the same molecule?
The value was “(2.5%)”.

What about the “Total Mortality, n/total (%)” value [9] of the same molecule?
The value was “(4.7%)”.

And the “Cardiovascular Mortality, n/total (%)” value [10]?
Its value is “(4.4%)”.

What about the “Catheterization, n/total (%)” value [10] of the same molecule?
The value was “(8.6%)”.

And the “Fatal Atherosclerotic Cardiovascular Disease, n/total (%)” value [10]?
Its value is “(4.4%)”.

And the “Fatal Coronary Heart Disease, n/total (%)” value [10]?
Its value is “(4.2%)”.

What about the “Total Mortality, n/total (%)” value [10] of the same molecule?
Its value is “(6.6%)”.

What about the “Cardiovascular Mortality, n/total (%)” value [11] of the same molecule?
The value was “(2.1%)”.

What about the “Catheterization, n/total (%)” value [11] of the same molecule?
The value was “(16.7%)”.

What about the “Fatal Atherosclerotic Cardiovascular Disease, n/total (%)” value [11] of the same molecule?
The value was “(2.1%)”.

What about the “Fatal Coronary Heart Disease, n/total (%)” value [11] of the same molecule?
The value was “(2.1%)”.

And the “Total Mortality, n/total (%)” value [11]?
Its value is “(4.2%)”.

What about the “Non-fatal MI (def & prob), n/total (%)” value (ELN hCV1253630, All Patients, 0 Rare Alleles, Prava, n/total 42/543) of the same molecule?
Its value is “(7.7%)”.

What about the “Fatal CHD/Definite Non-fatal MI, n/total (%)” value [12] of the same molecule?
The value was “(8.3%)”.

And the “Fatal/Non-fatal MI … (%)” value [12]?
Its value is “(8.3%)”.

And the “Total Coronary Heart Disease Events, n/total (%)” value (ELN hCV1253630, All Patients, 0 Rare Alleles, Prava, n/total 146/543)?
Its value is “(26.9%)”.

What about the “Hosp. for Cardiovascular Disease, n/total (%)” value (ELN hCV1253630, All Patients, 0 Rare Alleles, Prava, n/total 204/543) of the same molecule?
Its value is “(37.6%)”.

And the “Total Cardiovascular Disease Events, n/total (%)” value (ELN hCV1253630, All Patients, 0 Rare Alleles, Prava, n/total 212/543)?
Its value is “(39.0%)”.

And the “Non-fatal MI (def & prob), n/total (%)” value (ELN hCV1253630, All Patients, 1 Rare Allele, Prava, n/total 62/724)?
Its value is “(8.6%)”.

And the “Fatal CHD/Definite Non-fatal MI, n/total (%)” value (ELN hCV1253630, All Patients, 1 Rare Allele, Prava, n/total 65/724)?
Its value is “(9.0%)”.

What about the “Fatal/Non-fatal MI … (%)” value (ELN hCV1253630, All Patients, 1 Rare Allele, Prava, n/total 68/724) of the same molecule?
Its value is “(9.4%)”.

And the “Total Coronary Heart Disease Events, n/total (%)” value (ELN hCV1253630, All Patients, 1 Rare Allele, Prava, n/total 206/724)?
Its value is “(28.5%)”.

And the “Hosp. for Cardiovascular Disease, n/total (%)” value (ELN hCV1253630, All Patients, 1 Rare Allele, Prava, n/total 291/724)?
Its value is “(40.2%)”.

What about the “Total Cardiovascular Disease Events, n/total (%)” value (ELN hCV1253630, All Patients, 1 Rare Allele, Prava, n/total 298/724) of the same molecule?
The value was “(41.2%)”.
